Test results as given in PMC5034536, “Molecular insights into substrate recognition and catalytic mechanism of the chaperone and FKBP peptidyl-prolyl isomerase SlyD” (BMC Biology, 2016).
“And” between values parts separate entries of the source, which are not always exact repeats. Equal values may be shown once. Read-outs that look alike come from different tables or passages of the source. No end group written: not given here.

What was measured:
[1] = target: T1, TtSlyDFL (full-length SlyD from Thermus thermophilus) (Thermus thermophilus, UniProt Q5SLE7); assay: ITC binding of peptides to full-length TtSlyD; settings: for ΔH1 / –T · ΔS1 / N1: site 1 (IF domain)
T1 sequence (Q5SLE7 1-149): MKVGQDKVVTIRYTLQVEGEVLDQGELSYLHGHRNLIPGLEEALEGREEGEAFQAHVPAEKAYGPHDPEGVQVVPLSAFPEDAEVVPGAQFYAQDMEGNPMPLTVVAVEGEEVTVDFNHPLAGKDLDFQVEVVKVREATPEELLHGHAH
Protocol: ITC measurements were performed on iTC200 or VP-ITC instruments (GE Healthcare, Chalfont St. Giles, UK). The calorimetric cell (with a total cell volume of 220 μl in the iTC200, or 1400 μl in the VP-ITC) contained 50–200 μM TtSlyDFL dissolved in 20 mM HEPES, 100 mM NaCl, pH 7.5. Peptide samples of 700–2000 μM were titrated into the cell at 20 °C (VP-ITC) or 25 °C (iTC200). The heat generated after each ligand injection was obtained by integration of the calorimetric signal. Resulting binding isotherms were analyzed according to a one-site or two-site binding site model using the Origin software (OriginLab Corp., Northampton, MA, USA).

[2] = target: TtSlyDΔIF (IF domain replaced by the flap loop from human FKBP12) (Thermus thermophilus, UniProt Q5SLE7); assay type: binding; settings: ITC one-site model (FKBP domain), 25 °C; for Kd: read-out: KD2
TtSlyDFL = assay: Michaelis-Menten analysis with S2-P25A peptide by NMR lineshape analysis; assay type: biochemical, Thermus thermophilus; settings: 25 °C
Protocol: (§1) Having validated the method, we next turned to the longer unmodified peptides of interest here. […] The ^13C shifts of proline in the S2-P25A peptide show the same characteristics as an isolated proline amino acid. […] We determined apparent rate constants for TtSlyDFL and TtSlyDΔIF as a function of peptide concentration (Fig. 7b). The resulting kcat/KM value was 368 ± 4 μM^–1s^–1 for TtSlyDFL, which is a factor of 100–1000 higher compared to results obtained previously for various members of the SlyD family using tetrapeptides or unfolded proteins, and even exceeds those generally reported for FKBPs and other PPIases. […] However, the difference in kcat/KM between TtSlyDFL and TtSlyDΔIF is much smaller than what has been observed using protein substrates, and may simply relate to the lower binding affinity of TtSlyDΔIF relative to TtSlyDFL (in this scenario, KM would be larger for TtSlyDΔIF). In the case of TtSlyDFL we could separate the two parameters, yielding kcat = (0.7 ± 0.1) 10^6 s^–1 and KM = 2.0 ± 0.4 mM.
(§2) Lineshape analysis was performed using MATLAB.
(§3) Activity studies using the 15-residue-long S2-P25A peptide utilized a sample with a uniformly ^13C-labeled proline residue. ^1H–^13C HSQC experiments were used to separate the peptide signals in two dimensions, such that the cis and trans forms could both be detected without overlap. […] One-dimensional ^1H slices of the β and γ protons for the cis and trans forms were extracted from the two-dimensional spectrum, and lineshape analysis was applied. Michaelis-Menten-like studies were performed using a fixed concentration of TtSlyDFL of 0.2 μM and peptide concentrations ranging from 10 to 1000 μM.

TtSlyDΔIF = assay: as above; assay type: biochemical, Thermus thermophilus; settings: 25 °C
Protocol: as §1, §2, §3

[3] = Relative population of the cis form of the peptide by NMR; assay type: physicochemical; settings: free S2-P25A peptide with 13C-labeled proline (P29); comparison of cis and trans NMR intensities; 25 °C
Protocol: as §1
Activity studies using the 15-residue-long S2-P25A peptide utilized a sample with a uniformly ^13C-labeled proline residue. ^1H–^13C HSQC experiments were used to separate the peptide signals in two dimensions, such that the cis and trans forms could both be detected without overlap. […]

[4] = ITC two-site model, site 2 (FKBP domain) stoichiometry, 25 °C
[5] = ITC two-site model, site 2 (FKBP domain), 25 °C
[6] = ITC two-site model, 20 °C, wild-type TtSlyDFL
[7] = ITC two-site model, site 2 (FKBP domain), 20 °C, wild-type TtSlyDFL
[8] = ITC two-site model, 25 °C, 5 % DMSO
[9] = ITC two-site model, site 2 (FKBP domain), 25 °C, 5 % DMSO
[10] = S2-P25A peptide as substrate, NMR lineshape analysis
[11] = ITC single binding site model, 25 °C

Q: What does the source list for TRYWNPKMKEFIFGA-NH2 [S2-P29E]?
A: ΔH1 ([1]; ITC two-site model, 25 °C): –15.8 ± 0.16 kcal/mol; –T · ΔS1 ([1]; ITC two-site model, 25 °C): 7.2 kcal/mol; N2 [1, 4]: 1.02 ± 0.04; ΔH2 [1, 5]: –2.7 ± 0.48 kcal/mol; –T · ΔS2 [1, 5]: –4.5 kcal/mol; N2 [2]: 0.69 ± 0.03; ΔH2 [2]: –10.8 ± 0.27 kcal/mol; –T · ΔS2 [2]: 4.2 kcal/mol; Kd [2]: 13.8 ± 0.88 µM

Q: For RYWNPKMKPFIFG-NH2 [S2-short2], which N1 [1, 6] is on record?
A: Its N1 is 0.72 ± 0.03.

Q: What about the ΔH1 [1, 6] of the same substance?
A: Its ΔH1 is “–9.7 ± 0.21 kcal/mol”.

Q: What about the “–T · ΔS1” value [1, 6] of the same substance?
A: Its value is 0.9 kcal/mol.

Q: And the N2 [1, 7]?
A: The N2 was 0.91 ± 0.02.

Q: What about the ΔH2 [1, 7] of the same substance?
A: Its ΔH2 is “–5.5 ± 0.34 kcal/mol”.

Q: What about the “–T · ΔS2” value [1, 7] of the same substance?
A: The value was “–1.9 kcal/mol”.

Q: What does the source list for TRYWNAKMKEFIFGA-NH2 [S2-P25A/P29E]?
A: N1 [1, 8]: 1.13 ± 0.03; ΔH1 [1, 8]: –14.1 ± 0.33 kcal/mol; –T · ΔS1 [1, 8]: 6.1 kcal/mol; N2 [1, 9]: 1.09 ± 0.24; ΔH2 [1, 9]: –5.9 ± 1.91 kcal/mol; –T · ΔS2 [1, 9]: –0.1 kcal/mol; N2 ([2]; 5 % DMSO): 0.84 ± 0.06; ΔH2 ([2]; 5 % DMSO): –6.3 ± 0.58 kcal/mol; –T · ΔS2 ([2]; 5 % DMSO): 0.1 kcal/mol; Kd ([2]; 5 % DMSO): 29 ± 4.62 µM

Q: Which results are given for TRYANPKMKPFIFGA-NH2 [S2-W23A]?
A: ΔH1 ([1]; ITC two-site model, 25 °C): –15.8 ± 0.24 kcal/mol; –T · ΔS1 ([1]; ITC two-site model, 25 °C): 7.5 kcal/mol; N2 [1, 4]: 0.91 ± 0.40; ΔH2 [1, 5]: –2.3 ± 0.97 kcal/mol; –T · ΔS2 [1, 5]: –4.2 kcal/mol; N2 [2]: 0.77 ± 0.02; ΔH2 [2]: –8.1 ± 0.25 kcal/mol; –T · ΔS2 [2]: 1.6 kcal/mol; Kd [2]: 17.1 ± 1.13 µM

Q: For TRYWNNKMKNFIFGA-NH2 [S2-P25N/P29N], which N1 [1, 8] is on record?
A: Its N1 is 0.93 ± 0.02.

Q: And the ΔH1 [1, 8]?
A: Its ΔH1 is “–16.8 ± 0.12 kcal/mol”.

Q: What about the “–T · ΔS1” value [1, 8] of the same substance?
A: The value was 7.8 kcal/mol.

Q: And the N2 [1, 9]?
A: Its N2 is 1.18 ± 0.18.

Q: And the ΔH2 [1, 9]?
A: The ΔH2 was “–2.3 ± 0.33 kcal/mol”.

Q: And the “–T · ΔS2” value [1, 9]?
A: Its value is “–4.4 kcal/mol”.

Q: With TRYWNAKMKPFIFGA-NH2 [S2-P25A] as the substance, how does the ΔH1 ([1]; ITC two-site model, 25 °C) read?
A: The ΔH1 was “–16.6 ± 0.16 kcal/mol”.

Q: What about the “–T · ΔS1” value ([1]; ITC two-site model, 25 °C) of the same substance?
A: Its value is 7.2 kcal/mol.

Q: What about the N2 [1, 4] of the same substance?
A: Its N2 is 1.02 ± 0.04.

Q: What about the ΔH2 [1, 5] of the same substance?
A: Its ΔH2 is “–8.5 ± 0.82 kcal/mol”.

Q: And the “–T · ΔS2” value [1, 5]?
A: Its value is 1.5 kcal/mol.

Q: And the kcat/KM (TtSlyDFL; S2-P25A as substrate (cis concentration), 0.2 μM enzyme, Michaelis-Menten fitting)?
A: The kcat/KM was 3.68 ± 0.04 10^8 M^−1s^−1 and 3.7 10^8 M^−1s^−1.

Q: What about the kcat (TtSlyDFL; S2-P25A as substrate) of the same substance?
A: Its kcat is 0.7 ± 0.1 10^6 s^–1.

Q: What about the kcat/KM (TtSlyDFL; [10]) of the same substance?
A: Its kcat/KM is 368 ± 4 μM^–1s^–1.

Q: And the kcat/KM (TtSlyDΔIF; S2-P25A as substrate (cis concentration), 0.2 μM enzyme)?
A: Its kcat/KM is 2.5 10^8 M^−1s^−1.

Q: And the kcat/KM (TtSlyDΔIF; [10])?
A: The kcat/KM was 248 ± 1 μM^–1s^–1.

Q: And the N2 [2]?
A: The N2 was 0.91 ± 0.01.

Q: And the ΔH2 [2]?
A: The ΔH2 was “–11.7 ± 0.24 kcal/mol”.

Q: And the “–T · ΔS2” value [2]?
A: The value was 5.0 kcal/mol.

Q: And the Kd [2]?
A: The Kd was 12.1 ± 0.76 µM.

Q: And the “relative population of the cis form (cis content)” value [3]?
A: Its value is 14.5 ± 1%.

Q: Which results are given for GHQTRYWNPKMKPFI-NH2 [S2-minus1]?
A: ΔH1 ([1]; ITC two-site model, 25 °C): –16.6 ± 0.12 kcal/mol; –T · ΔS1 ([1]; ITC two-site model, 25 °C): 8.2 kcal/mol; N2 [1, 4]: 0.82 ± 0.02; ΔH2 [1, 5]: –11.1 ± 0.29 kcal/mol; –T · ΔS2 [1, 5]: 4.1 kcal/mol

Q: Which results are given for KMKPFIFGARNKVHI-NH2 [S2-plus2]?
A: ΔH1 ([1]; ITC two-site model, 25 °C): –13.1 ± 0.14 kcal/mol; –T · ΔS1 ([1]; ITC two-site model, 25 °C): 3.9 kcal/mol; N2 [1, 4]: 0.75 ± 0.04; ΔH2 [1, 5]: –8.4 ± 0.39 kcal/mol; –T · ΔS2 [1, 5]: 1.2 kcal/mol

Q: Which results are given for KAGVHFGHQTRYWNP-NH2 [S2-minus3]?
A: ΔH1 ([1]; ITC two-site model, 25 °C): –17.0 ± 0.73 kcal/mol; –T · ΔS1 ([1]; ITC two-site model, 25 °C): 9.4 kcal/mol; N2 [1, 4]: 1.17 ± 0.06; ΔH2 [1, 5]: –2.1 ± 1.41 kcal/mol; –T · ΔS2 [1, 5]: –4.8 kcal/mol

Q: Which Kd [1] does the source give for SGLVTRGS-NH2 [SlpA linker P5T] here?
A: The Kd was 130 ± 20 µM.

Q: And the N2 [1, 11]?
A: Its N2 is 1.76 ± 0.12.

Q: And the ΔH2 [1, 11]?
A: The ΔH2 was “–0.9 ± 0.10 kcal/mol”.

Q: And the “–T · ΔS2” value [1, 11]?
A: Its value is “–4.4 kcal/mol”.

Q: For YWNPKMKPFIF-NH2 [S2-short4], which N1 [1, 6] is on record?
A: Its N1 is 0.73 ± 0.24.

Q: And the ΔH1 [1, 6]?
A: Its ΔH1 is “–10.7 ± 2.33 kcal/mol”.

Q: And the “–T · ΔS1” value [1, 6]?
A: The value was 2.7 kcal/mol.

Q: What about the N2 [1, 7] of the same substance?
A: Its N2 is 0.87 ± 0.23.

Q: What about the ΔH2 [1, 7] of the same substance?
A: The ΔH2 was “–6.3 ± 3.02 kcal/mol”.

Q: And the “–T · ΔS2” value [1, 7]?
A: Its value is “–0.9 kcal/mol”.

Q: Which ΔH1 ([1]; ITC two-site model, 25 °C) does the source give for VHFGHQTRYWNPKMK-NH2 [S2-minus2] here?
A: Its ΔH1 is “–16.1 ± 0.21 kcal/mol”.

Q: What about the “–T · ΔS1” value ([1]; ITC two-site model, 25 °C) of the same substance?
A: The value was 8.1 kcal/mol.

Q: And the N2 [1, 4]?
A: Its N2 is 0.99 ± 0.06.

Q: And the ΔH2 [1, 5]?
A: Its ΔH2 is “–4.3 ± 0.92 kcal/mol”.

Q: What about the “–T · ΔS2” value [1, 5] of the same substance?
A: Its value is “–2.3 kcal/mol”.

Q: For WNPKMKPFIFGARNK-NH2 [S2-plus1], which ΔH1 ([1]; ITC two-site model, 25 °C) is on record?
A: The ΔH1 was “–11.4 ± 0.13 kcal/mol”.

Q: What about the “–T · ΔS1” value ([1]; ITC two-site model, 25 °C) of the same substance?
A: Its value is 2.3 kcal/mol.

Q: And the N2 [1, 4]?
A: The N2 was 0.94 ± 0.03.

Q: What about the ΔH2 [1, 5] of the same substance?
A: The ΔH2 was “–7.8 ± 0.23 kcal/mol”.

Q: And the “–T · ΔS2” value [1, 5]?
A: Its value is 0.4 kcal/mol.
